Test results from patent US8729020B2, “Methods for the treatment of aortic fibrosis with VIP fragments” (Vectus Biosystems Pty Ltd, priority 2009, dated 2014).

System: Male SHR rats on 2.2% salt diet
Assay: Effect of VIP/VIP fragment infusion on aortic fibrosis in rat model of fibrosis
Type: in vivo
Details: 4 weeks intravenous infusion at 5 pmol/kg/min by osmotic minipump, vs vehicle control, fibrosis quantified as percent surface area
From the text: Two animal models of aortic fibrosis were used (animals obtained from Australian Animal Resources, Perth, Western Australia, Australia)
i) Male SHR rats on 2.2% salt diet
In each model the rats were randomised to VIP (1-28), VIP (4-12), VIP (4-16), VIP (4-10), VIP (4-20), VIP (4-24), VIP (10-28), VIP (16-20), VIP (16-24), VIP (16-28), VIP (6-10), VIP (6-12), VIP (6-16), VIP (6-20), VIP (6-24), and VIP (6-28). All peptides were obtained from or synthesised by Auspep, Australia. VIP fragments were dissolved in Hartman's solution for subsequent infusion studies. Commencing at 12 weeks of age, the rats were acclimatized to tail cuff blood pressure measurements and handling for 2 weeks. They then underwent operative insertion of an osmotic minipump (Alzet) which was designed to deliver vehicle alone (Hartman's solution, (Baxter Health Care Corporation)-(Controls)) or VIP, VIP fragment at a dose of 5 pmol/kg/min intravenously.
The infusion was continued for 4 weeks, during which the rats were weighed and their blood pressures measured twice weekly. […]
For quantitation of aortic fibrosis, twenty fields from each aorta were digitized and the amount of fibrosis in each determined as percent surface area using Image-Pro Plus V5.0 software. The mean value for each rat and subsequently for each infusion group was then determined.

In the case of “His-Ser-Asp-Ala-Val-Phe-Thr-Asp-Asn-Tyr-Thr-Arg-Leu-Arg-Lys-Gln-Met-Ala-Val-Lys-Lys-Tyr-Leu-Asn-Ser-Ile-Leu-Asn (HSDAVFTDNYTRLRKQMAVKKYLNSILN; listed as Homo sapiens) [VIP]”, the “aortic fibrosis (fibrosis within the aortic wall)” value is reported as “reductions in aortic fibrosis”.
